In US20190262327A1, “COMBINATION OF A BACE INHIBITOR AND AN ANTIBODY OR ANTIGEN-BINDING FRAGMENT FOR THE TREATMENT OF A DISORDER ASSOCIATED WITH THE ACCUMULATION OF AMYLOID BETA” (ASTRAZENECA AB, priority 2016, published 2019) one finds IC50 data, which are given here for one compound.

pIC50: −log10 of the molar value.

This assay has as its system sAPPβ release in SH-SY5Y cells. Put plainly: sAPPβ Release Assay. It is filed as cell-based. To be noted: Homo sapiens, 17 h. The method, then:
Thaw cells and seed at a conc. of around 10000 cells/well in DMEM/F-12 with Glutamax, 10% FCS and 1% non-essential amino acids to a 384-well tissue culture treated plate, […] cell susp/well. The cell plates were then incubated for 7-24 h at 37° C., 5% CO2. The cell medium was removed, followed by addition of 30 μL compound diluted in DMEM/F-12 with Glutamax, 10% FCS, 1% non-essential amino acids and 1% PeSt to a final conc. of 1% DMSO. […] Meso Scale Discovery (MSD) plates were used for the detection of sAPPβ release. MSD sAPPβ plates were blocked in 1% BSA in Tris wash buffer (40 μL/well) for 1 h on shake at r.t. and washed 1 time in Tris wash buffer (40 μL/well). 20 μL of medium was transferred to the pre-blocked and washed MSD sAPPβ microplates, and the cell plates were further used in an ATP assay to measure cytotoxicity. The MSD plates were incubated with shaking at r.t. for 2 h and the media discarded. 10 μL detection antibody was added (1 nM) per well followed by incubation with shaking at r.t. for 2 h and then discarded. 40 μL Read Buffer was added per well and the plates were read in a SECTOR Imager.

Consider `CC#Cc1cncc(-c2ccc3c(c2)[C@@]2(N=C(C)C(N)=N2)[C@]2(CC[C@H](OC)CC2)C3)c1` [(1r,1′R,4R)-4-methoxy-5″-methyl-6′-[5-(prop-1-yn-1-yl)pyridin-3-yl]-3′H-dispiro[cyclohexane-1,2′-indene-1′2″-imidazol]-4″-amine], for which the pIC50 (in general, −log10 of the IC50, conventionally taken in molar units) is 10.00.
